Values of other authors in paper PMC10465233, “Lys-urea-Aad, Lys-urea-Cmc and Lys-urea-Cms as potential pharmacophores for the design of PSMA-targeted radioligands to reduce off-target uptake in kidneys and salivary glands” (Theranostics, 2023).
Read-outs that look alike come from different tables or passages of the source.

Set-up: method as in earlier work
Settings: cited from earlier work

Structure (SMILES): O=C([O-])CN1CCN(CC(=O)[O-])CCN(CC(=O)NCC2CCC(C(=O)NC(Cc3c4ccccc4cc4ccccc34)C(=O)NCCCCC(NC(=O)NC(CCCC(=O)O)C(=O)O)C(=O)O)CC2)CCN(CC(=O)[O-])CC1.[177Lu+3] (centres unmarked) [[^177Lu]Lu-HTK03149]
- Kinetics value (source organ Brain): 2.23E-03 MBq-h/MBq
- Kinetics value (source organ Cortical bone): 7.60E-02 MBq-h/MBq
- Kinetics value (source organ Heart): 1.94E-02 MBq-h/MBq
- Kinetics value (source organ Kidneys): 2.41E-01 MBq-h/MBq
- Kinetics value (source organ Large intestine contents): 9.24E-02 MBq-h/MBq
- Kinetics value (source organ Liver): 3.91E-01 MBq-h/MBq
- Kinetics value (source organ Lungs): 1.72E-02 MBq-h/MBq
- Kinetics value (source organ Pancreas): 1.79E-02 MBq-h/MBq
- Kinetics value (source organ Remainder of the body): 5.31E-01 MBq-h/MBq
- Kinetics value (source organ Spleen): 2.30E-02 MBq-h/MBq
- Kinetics value (source organ Stomach): 8.07E-03 MBq-h/MBq
- Kinetics value (source organ Testes): 1.29E-02 MBq-h/MBq
- Kinetics value (source organ Thyroid): 2.03E-03 MBq-h/MBq
- Kinetics value (source organ Urinary bladder): 8.14E-01 MBq-h/MBq
